Test results from ChEMBL document CHEMBL1159193, “Synthesis and in vitro anti-human immunodeficiency virus activity of artemisinin (qinghaosu)-related trioxanes” (Bioorg Med Chem Lett, 1994).

Key:
[1] = In vitro cytotoxicity assessed by measuring [3H]-thymidine uptake in human peripheral blood mononuclear (PBM) cells; format: functional
[2] = In vitro anti-HIV activity in human peripheral blood mononuclear (PBM) cells acutely infected with HIV-1 LAI; format: functional

Row | SMILES | IC50 [1] [µM] | EC50 [2] [µM]
1 | COC(=O)c1ccc([C@H]2OOC3(CCC[C@@H](C)C3)[C@@H](OC)O2)cc1 (some centres undefined) | > 100 | > 100
2 | CCCC[C@H]1O[C@@H]2O[C@]3(C)CC[C@H]4[C@H](C)CC[C@@H]([C@H]1C)[C@@]24OO3 | 1.3 | 4.7
3 | C[C@@H]1CC[C@H]2[C@@H](C)CCO[C@@H]3O[C@]4(C)CC[C@@H]1[C@]32OO4 | > 100 | 50.2
4 | C[C@@H]1CC[C@H]2[C@@H](C)C(=O)O[C@@H]3O[C@@]4(C)CC[C@@H]1[C@]32OO4 [ARTEMISININ] | > 100 | > 100
5 | CCO[C@H]1O[C@@H]2O[C@@]3(C)CC[C@H]4[C@H](C)CC[C@@H]([C@H]1C)[C@@]24OO3 [ARTEMOTIL] | 30.9 | 41.2
6 | C[C@@H]1CC[C@H]2[C@@H](C)CO[C@@H]3O[C@]4(C)CC[C@@H]1[C@]32OO4 [DEOXOARTEMISININ] | > 100 | > 100
7 | Cc1cn([C@H]2C[C@H](N=[N+]=[N-])[C@@H](CO)O2)c(=O)[nH]c1=O [ZIDOVUDINE] | > 100 | 0.004
